From patent US12441703B2, “Carboxamides as modulators of sodium channels” (VERTEX PHARMACEUTICALS INCORPORATED, priority 2019, dated 2025) come the findings set out here.

In this assay the target is human NaV 1.8 (Homo sapiens, UniProt Q9Y5Y9). Description: E-VIPR assay for detecting and measuring NaV inhibition properties. The class given is cell-based. Conditions: E-VIPR assay conducted in the presence of human serum; HEK cells expressing truncated human NaV 1.8; read-out: IC50. Summed up:
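HEK cells with truncated human NaV1.8 plus KIR2.1 BacMam, hexyl dye loaded 20 min, compound 30 min at room temperature, 11-point 3-fold series […], 0.625% DMSO, with or without human serum. E-VIPR biphasic stimulation at 10 Hz for 10 s; membrane-potential response read as normalized coumarin/oxonol ratio.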

Chain of human NaV 1.8 (Q9Y5Y9 whole entry, looked up, the tested form may be a part): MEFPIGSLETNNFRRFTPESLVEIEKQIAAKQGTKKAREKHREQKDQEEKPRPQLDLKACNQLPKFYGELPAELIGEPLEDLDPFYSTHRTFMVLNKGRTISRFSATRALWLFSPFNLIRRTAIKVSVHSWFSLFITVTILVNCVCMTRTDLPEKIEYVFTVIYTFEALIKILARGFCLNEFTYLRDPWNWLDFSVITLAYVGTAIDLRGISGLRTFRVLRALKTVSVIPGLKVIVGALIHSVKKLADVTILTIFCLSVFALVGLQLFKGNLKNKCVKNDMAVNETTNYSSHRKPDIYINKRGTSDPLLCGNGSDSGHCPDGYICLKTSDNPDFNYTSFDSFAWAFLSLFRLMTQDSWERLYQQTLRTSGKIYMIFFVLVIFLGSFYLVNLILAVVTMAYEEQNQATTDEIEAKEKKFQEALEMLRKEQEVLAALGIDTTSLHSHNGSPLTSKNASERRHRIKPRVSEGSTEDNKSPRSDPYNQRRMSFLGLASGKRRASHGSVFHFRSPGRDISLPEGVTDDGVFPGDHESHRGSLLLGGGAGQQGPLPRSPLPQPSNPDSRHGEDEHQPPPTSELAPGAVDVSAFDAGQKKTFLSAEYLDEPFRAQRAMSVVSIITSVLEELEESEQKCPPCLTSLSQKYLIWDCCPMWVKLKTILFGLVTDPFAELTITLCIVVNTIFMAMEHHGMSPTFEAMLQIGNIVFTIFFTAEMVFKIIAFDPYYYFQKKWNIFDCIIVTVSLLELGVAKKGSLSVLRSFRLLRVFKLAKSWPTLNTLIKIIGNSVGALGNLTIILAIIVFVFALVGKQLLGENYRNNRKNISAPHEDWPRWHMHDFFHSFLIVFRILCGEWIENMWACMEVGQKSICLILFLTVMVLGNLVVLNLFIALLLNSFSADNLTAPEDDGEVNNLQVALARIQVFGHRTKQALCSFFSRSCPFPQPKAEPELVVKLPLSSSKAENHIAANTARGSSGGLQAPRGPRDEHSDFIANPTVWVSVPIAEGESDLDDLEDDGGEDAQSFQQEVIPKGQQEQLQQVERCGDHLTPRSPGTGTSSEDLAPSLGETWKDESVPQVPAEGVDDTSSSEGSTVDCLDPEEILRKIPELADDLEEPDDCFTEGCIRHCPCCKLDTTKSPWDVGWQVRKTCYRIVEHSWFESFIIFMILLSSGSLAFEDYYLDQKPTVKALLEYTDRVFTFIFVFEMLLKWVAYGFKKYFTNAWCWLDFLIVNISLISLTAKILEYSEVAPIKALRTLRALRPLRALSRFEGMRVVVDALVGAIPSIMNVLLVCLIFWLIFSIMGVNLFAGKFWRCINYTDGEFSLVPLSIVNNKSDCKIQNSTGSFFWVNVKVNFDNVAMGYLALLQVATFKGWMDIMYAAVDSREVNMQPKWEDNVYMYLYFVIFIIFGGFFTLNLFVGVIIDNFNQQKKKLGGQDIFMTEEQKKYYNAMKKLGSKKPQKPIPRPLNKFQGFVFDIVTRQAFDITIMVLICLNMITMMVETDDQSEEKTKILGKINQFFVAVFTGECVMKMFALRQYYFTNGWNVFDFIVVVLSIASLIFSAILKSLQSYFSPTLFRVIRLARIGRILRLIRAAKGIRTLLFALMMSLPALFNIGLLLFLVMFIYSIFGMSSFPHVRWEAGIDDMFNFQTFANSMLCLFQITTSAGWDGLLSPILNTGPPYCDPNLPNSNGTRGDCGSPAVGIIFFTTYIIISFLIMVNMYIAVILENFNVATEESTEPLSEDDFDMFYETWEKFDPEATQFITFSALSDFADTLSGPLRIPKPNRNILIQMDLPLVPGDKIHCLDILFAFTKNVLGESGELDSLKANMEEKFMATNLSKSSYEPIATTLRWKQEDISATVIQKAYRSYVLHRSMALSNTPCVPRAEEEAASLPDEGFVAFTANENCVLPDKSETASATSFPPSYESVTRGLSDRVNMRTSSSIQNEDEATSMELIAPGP

What is called IC50 is the midpoint of a concentration-inhibition curve. Consider `NC(=O)c1cc(NC(=O)c2cc(C(F)(F)F)ccc2Oc2ccc(F)c3c2OCC3)ccn1` [Compound 10, 4-[[2-[(4-fluoro-2,3-dihydrobenzofuran-7-yl)oxy]-5-(trifluoromethyl)benzoyl]amino]pyridine-2-carboxamide], for which the IC50 was 650 nM. As for `Cc1cc(OC(F)(F)F)ccc1Oc1ccc(C(F)(F)F)c(C)c1C(=O)Nc1ccnc(C(N)=O)c1` [Compound 133, 4-[[2-methyl-6-[2-methyl-4-(trifluoromethoxy)phenoxy]-3-(trifluoromethyl)benzoyl]amino]pyridine-2-carboxamide], the figure is 9 nM; as for `[2H]C([2H])([2H])Oc1cc(OC(F)(F)F)ccc1Oc1cc(C2CCC(OC)CC2)cc(F)c1C(=O)Nc1ccnc(C(N)=O)c1` (single isomer, unassigned) [1017 (second diastereomer), 4-[[2-fluoro-4-(4-methoxycyclohexyl)-6-[2-(trideuteriomethoxy)-4-(trifluoromethoxy)phenoxy]benzoyl]amino]pyridine-2-carboxamide], 17 nM; as for `NC(=O)c1ccc(NC(=O)c2c(Oc3ccc(F)cc3Cl)ccc(C(F)(F)F)c2F)cn1` [Compound 176, 5-[[6-(2-chloro-4-fluoro-phenoxy)-2-fluoro-3-(trifluoromethyl)benzoyl]amino]pyridine-2-carboxamide], 490 nM. As for `CNC(=O)c1cc(NC(=O)c2c(Oc3ccc(F)c(F)c3OC)cc(OC)c(C(F)(F)F)c2F)ccn1` [Compound 301, 4-[[6-(3,4-Difluoro-2-Methoxy-Phenoxy)-2-Fluoro-4-Methoxy-3-(Trifluoromethyl)Benzoyl]Amino]-N-Methyl-Pyridine-2-Carboxamide], the figure is 22 nM; as for `[2H]C([2H])([2H])Oc1cc(OC(F)(F)F)ccc1Oc1ccc(C(F)(F)F)cc1C(=O)Nc1ccc(C(N)=O)nc1` [Compound 106], 1400 nM; as for `Cc1c(F)ccc(Oc2ccc(C(F)(F)F)c(F)c2C(=O)Nc2ccnc(C(N)=O)c2)c1C` [Compound 48, 4-[[2-fluoro-6-(4-fluoro-2,3-dimethyl-phenoxy)-3-(trifluoromethyl)benzoyl]amino]pyridine-2-carboxamide], 50 nM.

For `COc1c(C(F)(F)F)ccc(Oc2ccc(OC(F)(F)F)c(F)c2)c1C(=O)Nc1ccnc(C(N)=O)c1` [Compound 65, 4-[[6-[3-fluoro-4-(trifluoromethoxy)phenoxy]-2-methoxy-3-(trifluoromethyl)benzoyl]amino]pyridine-2-carboxamide], the IC50 was determined as 36 nM. The value for `[2H]C([2H])([2H])Oc1cc(OC(F)(F)F)ccc1Oc1cc(C2=CCCC2)cc(F)c1C(=O)Nc1ccnc(C(N)=O)c1` [Compound 1010, 4-[[4-(cyclopenten-1-yl)-2-fluoro-6-[2-(trideuteriomethoxy)-4-(trifluoromethoxy)phenoxy]benzoyl]amino]pyridine-2-carboxamide] was 13 nM; that for `COc1cc(Cl)ccc1Oc1ccc(C(F)(F)F)c(F)c1C(=O)Nc1ccc(C(N)=O)nc1` [Compound 220, 5-[[6-(4-chloro-2-methoxy-phenoxy)-2-fluoro-3-(trifluoromethyl)benzoyl]amino]pyridine-2-carboxamide] was 530 nM. Take `COc1c(C(F)(F)F)ccc(Oc2ccc(F)cc2Cl)c1C(=O)Nc1ccnc(C(N)=O)c1` [Compound 59, 4-[[6-(2-chloro-4-fluoro-phenoxy)-2-methoxy-3-(trifluoromethyl)benzoyl]amino]pyridine-2-carboxamide]: the IC50 was 100 nM. For the compound `COc1cc(F)ccc1Oc1ccc(C(F)(F)F)c(F)c1C(=O)Nc1ccnc(C(N)=O)c1` [Compound 103, 4-[[2-fluoro-6-(4-fluoro-2-methoxy-phenoxy)-3-(trifluoromethyl)benzoyl]amino]pyridine-2-carboxamide], the IC50 was 13 nM. The value for `COc1c(Oc2ccc(C(F)(F)F)c(C)c2C(=O)Nc2cc(C(N)=O)ncn2)ccc(OC(F)(F)F)c1F` [Compound 315, 6-[[6-[3-fluoro-2-methoxy-4-(trifluoromethoxy)phenoxy]-2-methyl-3-(trifluoromethyl)benzoyl]amino]pyrimidine-4-carboxamide] was 120 nM.

For the compound `NC(=O)c1cc(NC(=O)c2cc(C(F)(F)F)ccc2Oc2ccc(F)c(Cl)c2)ccn1` [Compound 11, 4-[[2-(3-chloro-4-fluoro-phenoxy)-5-(trifluoromethyl)benzoyl]amino]pyridine-2-carboxamide], the IC50 was found to be 1400 nM. As for `COc1cc(Oc2ccc(OC(F)(F)F)c(F)c2OC)c(C(=O)Nc2ccnc(C(N)=O)c2)c(F)c1C(F)(F)F` [Compound 320, 4-[[2-fluoro-6-[3-fluoro-2-methoxy-4-(trifluoromethoxy)phenoxy]-4-methoxy-3-(trifluoromethyl)benzoyl]amino]pyridine-2-carboxamide], the figure is 0.4 nM.

As to `COc1cc(OC(F)(F)F)ccc1Oc1ccc(Cl)c(C)c1C(=O)Nc1ccnc(C(N)=O)c1` [Compound 261, 4-[[3-chloro-6-[2-methoxy-4-(trifluoromethoxy)phenoxy]-2-methyl-benzoyl]amino]pyridine-2-carboxamide], the IC50 was 8 nM. As to `NC(=O)c1ccc(NC(=O)c2c(Oc3c(F)cc(F)cc3F)ccc(C(F)(F)F)c2F)cn1` [Compound 212, 5-[[2-fluoro-3-(trifluoromethyl)-6-(2,4,6-trifluorophenoxy)benzoyl]amino]pyridine-2-carboxamide], the IC50 was more than 3000 nM. The value for `COc1ccc(Cl)cc1Oc1ccc(C(F)(F)F)c(F)c1C(=O)Nc1ccnc(C(N)=O)c1` [Compound 27, 4-[[6-(5-chloro-2-methoxy-phenoxy)-2-fluoro-3-(trifluoromethyl)benzoyl]amino]pyridine-2-carboxamide] was 170 nM; that for `COc1cc(Oc2ccc(OC(F)(F)F)c(F)c2OC)c(C(=O)Nc2ccc(C(N)=O)nc2)c(F)c1C(F)(F)F` [Compound 321, 5-[[2-fluoro-6-[3-fluoro-2-methoxy-4-(trifluoromethoxy)phenoxy]-4-methoxy-3-(trifluoromethyl)benzoyl]amino]pyridine-2-carboxamide] was 11 nM. The value for `COc1c(Oc2cc(C(F)(F)F)c(OC)c(F)c2C(=O)Nc2ccnc(C(N)=O)c2)ccc(OC(F)(F)F)c1F` [Compound 325, 4-[[2-fluoro-6-[3-fluoro-2-methoxy-4-(trifluoromethoxy)phenoxy]-3-methoxy-4-(trifluoromethyl)benzoyl]amino]pyridine-2-carboxamide] was 1.6 nM. The value for `COc1cc(OC(F)(F)F)ccc1Oc1cc(-c2ccc(F)cc2)cc(F)c1C(=O)Nc1ccc(C(N)=O)nc1` [Compound 170, 5-[[2-fluoro-4-(4-fluorophenyl)-6-[2-methoxy-4-(trifluoromethoxy)phenoxy]benzoyl]amino]pyridine-2-carboxamide] was 230 nM; that for `COc1c(Oc2ccc(C(F)(F)F)c(C)c2C(=O)Nc2cnc(C(N)=O)nc2)ccc(OC(F)(F)F)c1F` [Compound 314, 5-[[6-[3-fluoro-2-methoxy-4-(trifluoromethoxy)phenoxy]-2-methyl-3-(trifluoromethyl)benzoyl]amino]pyrimidine-2-carboxamide] was 6.5 nM. As to `COc1cc(OC(F)(F)F)ccc1Oc1cc(C(C)(C)C)cc(C)c1C(=O)Nc1ccnc(C(N)=O)c1` [Compound 237, 4-[[4-tert-butyl-2-[2-methoxy-4-(trifluoromethoxy)phenoxy]-6-methyl-benzoyl]amino]pyridine-2-carboxamide], the IC50 worked out at 93 nM. On to `Cc1c(C(F)(F)F)ccc(Oc2ccc(F)cc2Cl)c1C(=O)Nc1ccnc(C(N)=O)c1` [Compound 122, 4-[[6-(2-chloro-4-fluoro-phenoxy)-2-methyl-3-(trifluoromethyl)benzoyl]amino]pyridine-2-carboxamide], for which the IC50 was 25 nM. `Cc1c2c(cc(Oc3ccc(OC(F)(F)F)cc3Cl)c1C(=O)Nc1ccc(C(N)=O)nc1)OC(F)(F)O2` [Compound 240, 5-[[6-[2-chloro-4-(trifluoromethoxy)phenoxy]-2,2-difluoro-4-methyl-1,3-benzodioxole-5-carbonyl]amino]pyridine-2-carboxamide]: the IC50 came to 570 nM.

As to `Cc1c(Oc2ccc(C(F)(F)F)c(F)c2C(=O)Nc2ccc(C(N)=O)nc2)ccc(F)c1F` [Compound 207, 5-[[6-(3,4-difluoro-2-methyl-phenoxy)-2-fluoro-3-(trifluoromethyl)benzoyl]amino]pyridine-2-carboxamide], the IC50 was found to be 370 nM.

For the compound `Cc1cc(F)ccc1Oc1ccc(C(F)(F)F)c(F)c1C(=O)Nc1ccc(C(N)=O)nc1` [Compound 101, 5-[[2-fluoro-6-(4-fluoro-2-methyl-phenoxy)-3-(trifluoromethyl)benzoyl]amino]pyridine-2-carboxamide], the IC50 turned out to be 525 nM.

As for `COc1cc(OC(F)(F)F)ccc1Oc1cc(C2=CCC(C(F)(F)F)CC2)ccc1C(=O)Nc1ccnc(C(N)=O)c1` (stereo not shown) [Compound 1031], the IC50 was found to be 2050 nM.
